pEC50, pIC50, pKd: −log10 of the molar value. Values belong to the molecule of their own block, whether it stands above or below them.
Tests used:
[1] = target: T1, Bromodomain-containing protein 4 (Homo sapiens, UniProt O60885); assay: Binding affinity to recombinant BRD4 bromodomain1 (unknown origin) by isothermal titration calorimetry
[2] = target: Cellular tumor antigen p53 (Homo sapiens, UniProt P04637); assay: Inhibition of p53-induced (unknown origin) expressed in human RKO cells assessed as reduction in p53-induced p21 activation measured after 24 hrs by luciferase reporter gene assay; type: cell-based
Chain of Cellular tumor antigen p53 (P04637 whole entry): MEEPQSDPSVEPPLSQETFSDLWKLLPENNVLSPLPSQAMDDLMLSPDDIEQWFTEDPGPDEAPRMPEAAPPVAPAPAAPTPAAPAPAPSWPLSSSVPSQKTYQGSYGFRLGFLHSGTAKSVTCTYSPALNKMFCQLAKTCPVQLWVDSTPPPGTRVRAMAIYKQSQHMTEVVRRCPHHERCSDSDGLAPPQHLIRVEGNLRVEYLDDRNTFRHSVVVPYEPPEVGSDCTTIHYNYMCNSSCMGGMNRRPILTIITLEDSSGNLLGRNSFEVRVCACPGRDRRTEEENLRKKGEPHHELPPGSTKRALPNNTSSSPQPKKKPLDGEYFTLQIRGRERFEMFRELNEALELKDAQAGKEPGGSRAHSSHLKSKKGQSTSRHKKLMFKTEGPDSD

CREB-binding protein [3] = target: T2, CREB-binding protein (Homo sapiens, UniProt Q92793); assay: Inhibition of CBP bromodomain (unknown origin) using H3K56Ac peptide as substrate by Alphascreen assay
T2 sequence (Q92793 whole entry): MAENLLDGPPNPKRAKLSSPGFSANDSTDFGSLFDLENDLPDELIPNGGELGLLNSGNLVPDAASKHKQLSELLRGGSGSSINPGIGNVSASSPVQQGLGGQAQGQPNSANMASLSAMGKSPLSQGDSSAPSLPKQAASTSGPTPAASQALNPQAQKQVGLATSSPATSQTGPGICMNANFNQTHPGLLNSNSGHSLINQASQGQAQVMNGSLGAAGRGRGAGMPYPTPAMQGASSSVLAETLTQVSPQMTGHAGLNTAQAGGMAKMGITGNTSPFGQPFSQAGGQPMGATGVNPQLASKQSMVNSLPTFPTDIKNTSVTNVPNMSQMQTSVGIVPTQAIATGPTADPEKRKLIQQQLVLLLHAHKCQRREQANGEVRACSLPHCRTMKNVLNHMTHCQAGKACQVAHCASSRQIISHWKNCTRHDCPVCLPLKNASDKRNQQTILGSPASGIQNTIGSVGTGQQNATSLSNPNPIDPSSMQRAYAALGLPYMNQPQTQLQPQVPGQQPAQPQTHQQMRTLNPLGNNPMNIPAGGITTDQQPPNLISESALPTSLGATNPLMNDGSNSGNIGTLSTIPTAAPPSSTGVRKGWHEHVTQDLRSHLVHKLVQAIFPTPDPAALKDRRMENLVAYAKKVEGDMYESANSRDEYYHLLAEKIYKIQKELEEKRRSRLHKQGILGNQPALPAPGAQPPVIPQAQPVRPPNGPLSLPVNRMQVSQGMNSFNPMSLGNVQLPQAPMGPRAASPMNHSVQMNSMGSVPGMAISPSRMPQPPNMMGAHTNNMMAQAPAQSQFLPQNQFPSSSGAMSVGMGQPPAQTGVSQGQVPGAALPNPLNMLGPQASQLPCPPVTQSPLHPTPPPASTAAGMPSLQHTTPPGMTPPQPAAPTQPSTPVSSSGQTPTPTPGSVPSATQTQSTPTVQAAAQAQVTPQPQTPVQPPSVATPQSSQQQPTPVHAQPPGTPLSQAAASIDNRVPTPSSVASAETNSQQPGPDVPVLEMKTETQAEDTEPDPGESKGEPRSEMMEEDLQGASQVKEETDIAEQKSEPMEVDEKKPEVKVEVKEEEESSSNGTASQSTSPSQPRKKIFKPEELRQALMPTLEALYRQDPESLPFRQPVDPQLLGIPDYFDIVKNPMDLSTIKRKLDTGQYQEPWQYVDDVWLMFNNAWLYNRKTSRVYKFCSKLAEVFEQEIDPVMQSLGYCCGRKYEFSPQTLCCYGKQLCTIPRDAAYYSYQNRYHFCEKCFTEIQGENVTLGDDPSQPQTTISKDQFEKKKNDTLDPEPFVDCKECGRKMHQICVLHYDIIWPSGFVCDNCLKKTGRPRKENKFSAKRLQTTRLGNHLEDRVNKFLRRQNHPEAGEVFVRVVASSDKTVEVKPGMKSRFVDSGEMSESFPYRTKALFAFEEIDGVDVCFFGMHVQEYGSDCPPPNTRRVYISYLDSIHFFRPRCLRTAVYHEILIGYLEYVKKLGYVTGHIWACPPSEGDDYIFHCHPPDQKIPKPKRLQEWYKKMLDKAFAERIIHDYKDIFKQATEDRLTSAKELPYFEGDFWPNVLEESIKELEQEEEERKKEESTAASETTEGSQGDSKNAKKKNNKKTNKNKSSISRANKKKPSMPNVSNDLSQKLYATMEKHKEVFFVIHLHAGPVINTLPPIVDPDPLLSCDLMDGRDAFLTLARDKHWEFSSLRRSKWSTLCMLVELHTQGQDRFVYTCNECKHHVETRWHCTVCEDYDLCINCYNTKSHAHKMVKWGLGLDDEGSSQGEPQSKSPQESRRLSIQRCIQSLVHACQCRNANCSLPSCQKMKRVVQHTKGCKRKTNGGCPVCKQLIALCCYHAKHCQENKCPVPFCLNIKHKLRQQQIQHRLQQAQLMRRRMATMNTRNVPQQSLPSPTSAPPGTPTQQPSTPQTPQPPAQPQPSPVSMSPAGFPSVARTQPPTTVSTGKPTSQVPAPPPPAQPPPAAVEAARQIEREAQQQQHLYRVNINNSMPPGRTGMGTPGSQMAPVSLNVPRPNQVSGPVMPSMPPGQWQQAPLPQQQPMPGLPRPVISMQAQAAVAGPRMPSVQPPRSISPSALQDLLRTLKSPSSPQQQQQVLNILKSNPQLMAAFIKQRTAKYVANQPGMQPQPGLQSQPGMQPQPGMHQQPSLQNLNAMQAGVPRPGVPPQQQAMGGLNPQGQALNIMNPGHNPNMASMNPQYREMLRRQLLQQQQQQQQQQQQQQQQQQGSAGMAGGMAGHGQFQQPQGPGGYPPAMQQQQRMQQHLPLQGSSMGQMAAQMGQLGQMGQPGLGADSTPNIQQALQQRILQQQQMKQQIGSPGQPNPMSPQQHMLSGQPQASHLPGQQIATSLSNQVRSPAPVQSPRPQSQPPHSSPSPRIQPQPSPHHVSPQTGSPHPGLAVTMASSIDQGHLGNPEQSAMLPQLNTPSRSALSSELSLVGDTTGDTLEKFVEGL

[4] = target: T3, Histone acetyltransferase p300 (Homo sapiens, UniProt Q09472); assay: Binding affinity to EP300 (unknown origin) by isothermal titration calorimetry
CREB-binding protein [5] = target: T2, CREB-binding protein; assay: Binding affinity to C-terminally biotinylated N-terminal His10-tagged human CBP bromodomain (R1081 to G1198 residues) expressed in Escherichia coli BL21(DE3) by isothermal titration calorimetry
[6] = target: T1, Bromodomain-containing protein 4; assay: Binding affinity to human BRD4 bromodomain1 by isothermal titration calorimetry
[7] = target: T1, Bromodomain-containing protein 4; assay: Displacement of Halo-tagged histone H3.3 from Nluc-BRD4 (unknown origin) expressed in HEK293 cells using furimazine as substrate pretreated for 18 hrs followed by substrate addition measured within 5 mins by NanoBRET assay; type: cell-based
CREB-binding protein [8] = target: T2, CREB-binding protein; assay: Binding affinity to recombinant human His-tagged CBP bromodomain expressed in bacterial expression system by isothermal titration calorimetry
[9] = target: T3, Histone acetyltransferase p300; assay: Binding affinity to recombinant human His-tagged EP300 expressed in bacterial expression system by isothermal titration calorimetry
CREB-binding protein [10] = target: T2, CREB-binding protein; assay: Binding affinity to CBP bromodomain (unknown origin) by tryptophan fluorescence assay
[11] = target: T4, Histone acetyltransferase KAT2B (Homo sapiens, UniProt Q92831)
T4 sequence (Q92831 whole entry): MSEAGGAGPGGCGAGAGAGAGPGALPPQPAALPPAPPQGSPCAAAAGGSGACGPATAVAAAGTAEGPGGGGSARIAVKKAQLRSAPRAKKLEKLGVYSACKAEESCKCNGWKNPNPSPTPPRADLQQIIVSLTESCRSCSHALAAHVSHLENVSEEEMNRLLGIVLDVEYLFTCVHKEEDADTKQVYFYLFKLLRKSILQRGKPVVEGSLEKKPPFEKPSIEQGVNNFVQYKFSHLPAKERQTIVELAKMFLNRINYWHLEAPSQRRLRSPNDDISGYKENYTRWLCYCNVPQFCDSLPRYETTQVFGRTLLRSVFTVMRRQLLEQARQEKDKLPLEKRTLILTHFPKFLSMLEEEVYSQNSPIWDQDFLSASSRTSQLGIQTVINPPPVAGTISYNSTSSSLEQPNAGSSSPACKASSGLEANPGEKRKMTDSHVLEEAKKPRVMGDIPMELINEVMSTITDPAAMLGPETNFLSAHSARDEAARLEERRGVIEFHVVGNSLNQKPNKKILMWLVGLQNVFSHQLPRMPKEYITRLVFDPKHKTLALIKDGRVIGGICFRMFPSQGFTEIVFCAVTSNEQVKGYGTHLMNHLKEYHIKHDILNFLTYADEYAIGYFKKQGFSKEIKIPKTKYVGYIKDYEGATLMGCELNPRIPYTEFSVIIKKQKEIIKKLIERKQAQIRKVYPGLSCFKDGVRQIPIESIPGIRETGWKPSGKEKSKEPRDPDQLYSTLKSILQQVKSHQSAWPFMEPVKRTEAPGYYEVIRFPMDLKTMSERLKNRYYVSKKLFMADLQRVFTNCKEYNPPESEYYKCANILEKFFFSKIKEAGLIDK

[12] = test system: Human immunodeficiency virus 1; assay: Antiviral activity against HIV1 3B infected in human C8166 cells assessed as reduction in virus-induced cytopathic effect by measuring syncytium formation after 3 days by inverted microscopic analysis; type: functional, organism-based; conditions: Human immunodeficiency virus 1, 3B, C8166, 72 h
[13] = target: T5, ATPase family AAA domain-containing protein 2B (Homo sapiens, UniProt Q9ULI0); assay: Binding affinity to partial length human ATAD2B (Q955 to R1082) expressed in bacterial expression system by Bromoscan method
T5 sequence (Q9ULI0 whole entry): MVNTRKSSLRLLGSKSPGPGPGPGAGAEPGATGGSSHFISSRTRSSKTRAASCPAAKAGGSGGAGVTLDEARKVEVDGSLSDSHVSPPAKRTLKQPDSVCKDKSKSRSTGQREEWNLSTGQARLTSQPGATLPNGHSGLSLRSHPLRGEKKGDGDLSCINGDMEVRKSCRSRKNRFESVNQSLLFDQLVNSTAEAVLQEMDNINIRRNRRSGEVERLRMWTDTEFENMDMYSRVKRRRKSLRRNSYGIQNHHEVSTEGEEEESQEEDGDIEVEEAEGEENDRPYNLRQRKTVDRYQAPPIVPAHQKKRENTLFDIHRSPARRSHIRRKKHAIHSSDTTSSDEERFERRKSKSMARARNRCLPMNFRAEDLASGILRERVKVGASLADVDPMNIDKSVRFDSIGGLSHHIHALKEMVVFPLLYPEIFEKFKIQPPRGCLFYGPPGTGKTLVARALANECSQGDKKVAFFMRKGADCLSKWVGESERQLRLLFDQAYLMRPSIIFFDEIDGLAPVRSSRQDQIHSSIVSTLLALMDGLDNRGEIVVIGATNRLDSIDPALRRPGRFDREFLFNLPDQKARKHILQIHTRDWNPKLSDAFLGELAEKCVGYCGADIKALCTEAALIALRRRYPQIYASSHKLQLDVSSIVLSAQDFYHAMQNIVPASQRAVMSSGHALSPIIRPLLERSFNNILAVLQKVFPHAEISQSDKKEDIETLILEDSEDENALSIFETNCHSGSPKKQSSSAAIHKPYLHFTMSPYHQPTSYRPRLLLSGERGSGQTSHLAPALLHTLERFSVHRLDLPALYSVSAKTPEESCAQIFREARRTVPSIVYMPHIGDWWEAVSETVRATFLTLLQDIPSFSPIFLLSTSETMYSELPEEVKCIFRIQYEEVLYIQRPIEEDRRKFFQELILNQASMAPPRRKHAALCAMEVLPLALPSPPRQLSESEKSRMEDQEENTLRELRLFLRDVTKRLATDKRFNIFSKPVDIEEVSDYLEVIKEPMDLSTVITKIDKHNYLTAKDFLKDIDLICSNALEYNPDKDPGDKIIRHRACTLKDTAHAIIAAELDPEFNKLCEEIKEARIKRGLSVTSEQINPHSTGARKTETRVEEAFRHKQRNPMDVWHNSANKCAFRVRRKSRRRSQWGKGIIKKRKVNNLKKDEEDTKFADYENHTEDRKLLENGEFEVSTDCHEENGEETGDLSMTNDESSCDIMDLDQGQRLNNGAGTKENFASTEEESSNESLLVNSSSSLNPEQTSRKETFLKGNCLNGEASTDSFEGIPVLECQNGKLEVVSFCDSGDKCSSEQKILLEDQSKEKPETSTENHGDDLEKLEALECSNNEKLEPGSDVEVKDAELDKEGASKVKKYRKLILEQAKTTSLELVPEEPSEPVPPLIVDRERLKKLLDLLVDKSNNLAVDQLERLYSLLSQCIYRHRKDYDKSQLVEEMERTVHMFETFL

THP-1 = assay: Inhibition of LPS-stimulated IL-6 secretion in human THP1 cells by ELISA; type: functional, cell-based
[14] = target: T4, Histone acetyltransferase KAT2B; remark: listed apart in the source
Description: Displacement of biotinylated small molecule ligand from His/FLAG-tagged PCAF bromodomain (719 to 832 residues) (unknown origin) after 15 mins by AlphaLisa method

pKd [1]: 4.70
Structure (SMILES): CCCOc1ccc(CCc2nc3cc(-c4c(C)noc4C)ccc3n2CCN2CCOCC2)cc1

pIC50 [2]: 5.81
Structure (SMILES): COc1ccc(CCc2nc3cc(-c4c(C)noc4C)ccc3n2C[C@H](C)N2CCOCC2)cc1Cl

pIC50 (CREB-binding protein [3]): 2.72
Structure (SMILES): CC1Nc2ccccc2NC1=O (stereo not given)

pKd [4]: 6.46 to 6.78 | pKd (CREB-binding protein [5]): 6.68 to 6.82 | pKd [6]: 5.25 | pIC50 [7]: 6.22
Structure (SMILES): CCC(=O)N1CCOc2c(cc(-c3ccc(OC)c(OC)c3)cc2OC[C@H]2CCCN(C)C2)C1

pKd (CREB-binding protein [8]): 6.49 | pKd [9]: 6.46
Structure (SMILES): Cc1noc(C)c1-c1ccc2c(c1)nc(CCc1ccccc1)n2CCN1CCOCC1

pKd (CREB-binding protein [10]): 5.10
Structure (SMILES): CC(=O)NCCCC[C@@H]1NC(=O)[C@H](Cc2c[nH]c3ccccc23)NC(=O)[C@@H](NC(C)=O)CSSCC(C(=O)N[C@@H](Cc2ccccc2)C(=O)N[C@@H](CCCCN)C(N)=O)NC(=O)[C@H](CC(C)C)NC(=O)[C@H](CCCCN)NC1=O (single isomer, unassigned)

pIC50 [11]: 6.03 | pEC50 [12]: 4.94
Structure (SMILES): NCCCNCc1ccc(NCCCN)[n+]([O-])c1

pKd [13]: 9.00
Structure (SMILES): CO[C@H]1CNC[C@@H](OCC2CCC(F)(F)CC2)[C@@H]1Nc1ncc(-c2cncc(C)c2)c2cc(C)c(=O)[nH]c12

pIC50 (THP-1): > 5.00
Structure (SMILES): Cc1cc(=O)n(C)c2cc(N3C(=O)CC[C@H](NS(=O)(=O)CC(C)C)[C@H]3c3ccc(Cl)cc3)ccc12

pIC50 [14]: 7.15
Structure (SMILES): C[C@H](Nc1nn(C)c(=O)n(C)c1=O)[C@H](c1ccc(S(=O)(=O)c2ccccc2)cc1)N(C)C
